From US6387655B1, “Excitatory amino acid receptor protein and related nucleic acid compounds” (Eli Lilly and Company, priority 1995, dated 2002)
pEC50: −log10 of the molar value. Read-outs that look alike come from different tables or passages of the source.

Molecular target: T1, human HmGluR3 (Homo sapiens, UniProt Q14832)
T1 construct: expressed in transfected cells; host or cells: RGT (RGT-18) cells, i.e. AV12 cells stably expressing the rat glutamate transporter GLAST
Test: Inhibition of forskolin-stimulated cAMP synthesis (adenylate cyclase activity) in RGT cells stably transfected with pGTh-HmGluR3
Format: cell-based
Method: In an especially preferred embodiment of this invention an assay measuring the inhibition of forskolin-stimulated cAMP synthesis was performed. The inhibition of cAMP synthesis is known to positively correlated with the addition of glutamate to cells containing certain types of metabotropic receptors.
Adenylate cyclase activity was determined in initial experiments in transfected mammalian cells, using standard techniques. See. e.g., N. Adham, et al., supra,; R. L. Weinshank, et al., Proceedings of the National Academy of Sciences (USA), 89:3630-3634 (1992), and the references cited therein.
As noted above, mammalian cells (the cell line RGT) were stably transfected with the plasmid pGTh-HmGluR3, containing human HmGluR3 cDNA inserted in the plasmid vector pGTh, as depicted in FIG. 2. The cells were maintained in a medium consisting of Dulbecco's Modified Eagle's Medium (DMEM) containing 5% dialyzed fetal calf serum, 10 mM HEPES buffer (pH 7.3), 1 mM sodium pyruvate, 1 mM glutamine, and 200 μg/ml hygromycin.
For the assay the cells were disassociated from stock culture flasks with trypsin, and planted in 24-well plastic culture dishes (15 mm wells) at a density of 500-700,000 cells per well using the same culture medium. After twenty four hours incubation in a humidified carbon dioxide incubator, the cell monolayers are washed with buffer (Dulbecco's phosphate-buffered saline containing 0.5 mM isobutylmethylxanthine and 3 mM glucose) and then incubated in the same buffer at 37° C. for 30 minutes. The monolayers are then washed four additional times with buffer.
Drugs and forskolin, or forskolin alone, dissolved in buffer, was added after the final wash. After incubating for 20 minutes at 37° C., 0.5 ml of 8 mM EDTA was added to each well. The plates were then placed in a boiling water bath for about four minutes. The supernatant fluids are then recovered from the wells and lyophilized. Cyclic adenosinemonophosphate (cAMP) determinations were carried out on the lyophilized samples using commercially available radioimmunoassay kits, following the manufacturer's instructions. The cAMP level in wells containing drug was compared to the forskolin controls.

[1] = RGT cells expressing HmGluR3, cAMP by radioimmunoassay versus forskolin controls, 20 minutes at 37° C., read-out: EC50 (potencies of selected agonists for HmGluR3 expressed in RGT cells)

T1 sequence (Q14832 23-879): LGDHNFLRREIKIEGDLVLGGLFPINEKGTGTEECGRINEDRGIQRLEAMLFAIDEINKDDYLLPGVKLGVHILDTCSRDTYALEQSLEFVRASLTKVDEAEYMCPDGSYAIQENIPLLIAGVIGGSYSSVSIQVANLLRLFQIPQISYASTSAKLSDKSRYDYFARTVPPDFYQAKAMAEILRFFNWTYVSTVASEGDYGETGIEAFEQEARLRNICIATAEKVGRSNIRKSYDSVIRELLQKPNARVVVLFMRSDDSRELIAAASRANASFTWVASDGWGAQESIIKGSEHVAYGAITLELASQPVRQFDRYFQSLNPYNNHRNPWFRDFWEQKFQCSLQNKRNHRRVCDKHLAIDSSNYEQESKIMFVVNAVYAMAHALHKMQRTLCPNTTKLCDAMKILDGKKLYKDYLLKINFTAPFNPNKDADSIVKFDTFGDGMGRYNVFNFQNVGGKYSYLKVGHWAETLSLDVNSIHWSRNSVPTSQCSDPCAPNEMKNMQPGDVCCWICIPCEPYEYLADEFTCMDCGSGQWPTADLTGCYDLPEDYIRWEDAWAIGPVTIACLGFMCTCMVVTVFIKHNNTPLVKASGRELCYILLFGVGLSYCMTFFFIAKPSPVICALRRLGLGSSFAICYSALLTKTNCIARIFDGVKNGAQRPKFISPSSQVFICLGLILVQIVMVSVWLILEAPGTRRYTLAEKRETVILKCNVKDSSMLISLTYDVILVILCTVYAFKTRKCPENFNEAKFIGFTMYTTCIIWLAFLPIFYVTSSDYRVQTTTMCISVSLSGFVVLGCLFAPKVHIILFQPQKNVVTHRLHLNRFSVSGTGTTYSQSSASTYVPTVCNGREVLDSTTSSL

SMILES | pEC50 | pEC50 [1]
NC1(C(=O)O)CCC(C(=O)O)C1 (stereo not drawn) [1S,3R-1-aminocyclopentant-1,3-dicarboxylic acid] | 5.65 | –
NC1(C(=O)O)CNC(C(=O)O)C1 (stereo not drawn) [2R,4R-4-aminopyrrolidine-2,4-dicarboxylate] | – | 6.26
N[C@H](C(=O)O)C1CC1C(=O)O (stereo partly drawn) [L-2-(carboxycyclopropyl)glycine-I] | – | 7.92
N[C@@H](CCC(=O)O)C(=O)O [L-Glutamate, 1-aminopropane-1,3-dicarboxylic acid] | 5.27 | –
